{"source": "patent US9137987B2", "about": "“Moderated release aquatic herbicide formulations” (SePro Corporation, priority 2011, dated 2015)", "key": {"fish": {"test_system": "fish", "conditions": "cited from earlier work"}, "curly-leaf pondweed": {"test_system": "curly-leaf pondweed", "experiment": "Greenhouse concentration and exposure trial on curly-leaf pondweed", "type": "in vivo, Potamogeton crispus", "source_text": "Error bars are +1 standard deviation (n=3).\nRelative to control of invasive curly-leaf pondweed (or CLP), greenhouse studies of penoxsulam concentration and exposure requirements to achieve control of this species have documented that exposure periods of 3-7 days to 3-6 ppb penoxsulam can provide effective control. FIG. 10 presents results of a representative greenhouse trial of penoxsulam treatment of CLP. 13-cm diameter pots were filled with potting soil amended with Osmocote slow release fertilizer (14-14-14). Four apical CLP tips, harvested from a culture at the SRTC, were planted into each pot. A one-inch sand cap was placed over the potting soil and submersed into 54 gallon tubs to allow for grow-out. At 19 days after planting, the five tubs were treated with 0, 3, 6, 12, or 24 ppb penoxsulam. Three pots per treatment were pulled out and placed into a common grow-out tank at 1, 3, 7, and 14 days after treatment (DAT). Once the plants were allowed to grow out for 28 DAT the plants were harvested to determine aboveground dry weight (48 hours at 70° C.)."}, "hydrilla": {"test_system": "hydrilla", "conditions": "Hydrilla verticillata (hydrilla), in vivo", "protocol": "Eurasian watermilfoil or hydrilla apical fragments were collected from infested field sites and grown in topsoil cultures in greenhouse conditions until needed for uptake experiments. For uptake studies, 15 cm apical fragments were planted in glass jars in topsoil with a sand cap. Plants were allowed to grow in 30 L tanks until rooted (˜14 days). Prior to experiments plants were removed from water and agarose gel (1.5%) was added to each sand cap surface in each jar to avoid root exposure. Three plants of each species were then placed in 4 L plastic containers containing 3 L of dechlorinated tap water. Plants were allowed to equilibrate overnight prior to treatment. During the study, plants were maintained at room temperature (25° C.) under grow lights. Six containers were treated for each experiment using the following aboveground (i.e., above gel layer and into shoot section) treatments of ^14C-radiolabeled herbicide: Fluridone—10 ppb, Penoxsulam—10 ppb, Triclopyr—1,000 ppb (10 ppb ^14C, remainder ‘cold’ material). All radiolabeled dosing of 10 ppb equated to 222,000 DPM of 14C herbicide. The selected total herbicide rates corresponded to typical use rates for these three aquatic herbicides. […] After drying, plants were weighed and biomass recorded. Plants were then burned using a biological sample oxidizer and radioactivity quantified using liquid scintillation spectroscopy (LSS). […]"}, "Eurasian watermilfoil [1]": {"test_system": "Eurasian watermilfoil", "experiment": "14C-triclopyr uptake study, root exposure", "type": "in vivo, Myriophyllum spicatum", "conditions": "root exposure, 200,000 dpm 14C-triclopyr", "procedure": "Threshold absorption is reached within 12-24 hours for below ground tissue and near-maximum translocation to aboveground tissue is reached within 48 hours.\nPrior to the experiment, plants were transplanted into glass jars filled with water plus a diluted growth media (Hoagland's Solution) and an eicosane wax plug was added to separate aboveground and belowground portions of the plant. Plants were allowed to equilibrate in this solution for 5 days. The root zone of each plant was treated with 200,000 dpm of 14C-triclopyr. Plants were then moved into 3 gallon tanks with other treated plants. Treatments were replicated 3 times and harvested at 12, 24, 48, 96, 192 HAT. Upon harvest, plants were separated into aboveground and belowground portions, dried, weighed and biomass recorded."}, "Eurasian watermilfoil [2]": {"test_system": "Eurasian watermilfoil", "experiment": "14C herbicide uptake study, shoot exposure", "type": "in vivo, Myriophyllum spicatum", "source_text": "Plants were allowed to equilibrate overnight prior to treatment. […] Plants were separated into aboveground and belowground segments. […] After drying, plants were weighed and biomass recorded."}, "[3]": {"conditions": "shoot exposure, triclopyr 1,000 ppb, FIG. 1A, hydrilla and Eurasian milfoil not distinguished in text"}}, "note": "Entries after “also recorded” stand apart in the source; their conditions may differ.", "data": [{"smiles": "CNC.O=C(O)COc1ccc(Cl)cc1Cl", "note": "[2,4-d dimethylamine salt]", "values": [{"measurement": "toxicity to creatures such as fish versus butoxyethyl ester of 2,4-d", "setting": "fish; US EPA 2,4-D Re-Registration Eligibility Decision 2005", "value": "substantially less toxic"}]}, {"smiles": "CCN(CC)CC.O=C(O)COc1nc(Cl)c(Cl)cc1Cl", "note": "[Triclopyr triethylamine]", "values": [{"measurement": "toxicity to creatures such as fish versus butoxyethyl ester of triclopyr", "setting": "fish; in vivo", "value": "substantially less toxic"}]}, {"smiles": "COc1cnc(OC)n2nc(NS(=O)(=O)c3c(OCC(F)F)cccc3C(F)(F)F)nc12", "note": "[penoxsulam, 2-(2,2-difluoroethoxy)-6-(trifluoromethyl)-N-(5,8-dimethoxy[1,2,4]triazolo-[1,5c]pyrimidin-2-yl)-benzenesulfonamide]", "values": [{"measurement": "exposure period providing effective control", "setting": "curly-leaf pondweed; 3-6 ppb penoxsulam", "value": "3 to 7", "unit": "days"}, {"measurement": "penoxsulam concentration providing effective control", "setting": "curly-leaf pondweed; exposure periods of 3-7 days", "value": "3-6 ppb"}]}, {"smiles": "O=C(O)COc1nc(Cl)c(Cl)cc1Cl", "note": "[triclopyr, 3,5,6-trichloro-2-pyridyloxyacetic acid]", "values": [{"measurement": "time to maximum uptake", "setting": "hydrilla", "value": "≤ 96", "unit": "h"}, {"measurement": "time to near-maximum translocation to aboveground tissue", "setting": "Eurasian watermilfoil [1]", "value": "≤ 48", "unit": "h"}, {"measurement": "time to threshold uptake in belowground tissue", "setting": "Eurasian watermilfoil [1]", "value": "12 to 24", "unit": "h"}, {"measurement": "time to maximum uptake", "setting": "Eurasian watermilfoil [2]; Myriophyllum spicatum (Eurasian watermilfoil), in vivo", "value": "≤ 96", "unit": "h"}, {"measurement": "dose-corrected maximum uptake versus fluridone and penoxsulam", "setting": "Eurasian watermilfoil [2]; shoot exposure, Eurasian milfoil, FIG. 1B", "value": "Greater dose-corrected uptake; also recorded: much greater on a dose-corrected basis"}, {"measurement": "time to threshold levels in aboveground tissues", "setting": "Eurasian watermilfoil [2]; [3]", "value": "48 to 96", "unit": "h"}, {"measurement": "time to threshold levels in belowground tissues", "setting": "Eurasian watermilfoil [2]; [3]", "value": "6 to 12", "unit": "h"}]}]}
